We go through 4 compounds from ChEMBL document CHEMBL1123919, “Molecular modification of anticholinergics as probes for muscarinic receptors. 3. Conformationally restricted analogues of benactyzine” (J Med Chem, 1987).

For experiment [1], the target named is Muscarinic acetylcholine receptor. The experiment is described as follows: Compound was evaluated for the inhibition of binding of [3H]QNB (quinuclidinyl benzilate) to striatal Muscarinic acetylcholine receptor. Type of experiment: protein assay.
For another experiment, the species on record is Rattus norvegicus. The experiment is described as follows: Antimuscarinic potency is measured as its ability to block ACh-induced contractions of the rat ileum. The following applies: read-out: pA2 (converted). Type of experiment: functional.

The term IC50 denotes the concentration needed to halve the response being measured. High values mean weaker potency in that assay, low ones greater potency in that assay. The compound `CCN(CC)CCC1COC(c2ccccc2)(c2ccccc2)C1=O.Cl` (stereo not given) yielded a 50% inhibitory concentration (IC50) in experiment [1] of 2000 nM. Also, in the experiment filed under Rattus norvegicus, the Kb is 447 nM.

Turning to `CCN(CC)CC[C@@H]1COC(c2ccccc2)(c2ccccc2)[C@@H]1O`, the Kb in the experiment filed under Rattus norvegicus is 646 nM.

Consider `CCN(CC)CC[C@H]1COC(c2ccccc2)(c2ccccc2)[C@@H]1O`, for which the Kb in the experiment listed under Rattus norvegicus is 20000 nM.

Take `CCN(CC)C[C@H]1C[C@@H]2COC(c3ccccc3)(c3ccccc3)[C@@H]2O1.Cl`: the IC50 in experiment [1] came out at 19000 nM.
